{"source": "patent US11779529B2", "about": "“Personal care composition” (Colgate-Palmolive Company, priority 2017, dated 2023)", "tested_on": "Collagen I", "assay": "Collagen I release from human dermal fibroblast cells, COL1A1 ELISA of supernatants", "format": "cell-based", "conditions": "1 mL composition, 24 hours, 37° C., 5% CO2, average of 3 tests", "procedure": "Each of the compositions of Table 3 was tested on human dermal fibroblast cells (Thermo Fisher Scientific, Gaithersburg, Md.) as follows: human dermal fibroblast cells were seeded in 6-well plates and grow until about 80% confluency. 1 mL of each composition was added to the wells in triplicate per composition. The cells were then incubated at 37° C., 5% CO2 for 24 hours and the supernatants were collected and analyzed for Collagen I release. Collagen I release in the supernatants was measured using COL1A1 ELISA kit (MyBioSource, San Diego, Calif.). The data in Table 3 represents the average value for 3 tests.", "data": [{"smiles": "NCCS(=O)(=O)O", "note": "[Solvent + 0.001% Taurine, Taurine]", "values": [{"measurement": "Collagen I", "value": 1.9, "unit": "ng/mL"}]}]}
